Data set [1] relates to Plasmodium falciparum. As to the kind of experiment: microbe, parasite or virus in culture. The settings on record: D6, 48 h.
A short description of data set [2]: Selectivity index, ratio of IC50 for African green monkey Vero cells to IC50 for chloroquine-sensitive Plasmodium falciparum D6. The settings on record: read-out: Ratio IC50. It is filed as toxicity.
For data set [3], the system named is Toxoplasma gondii. Briefly: Growth inhibition of GFP-fused Toxoplasma gondii RH infected in HFF at 1 uM after 3 days by fluorescence microscopic method relative to control. The format is functional. The settings on record: for inhibition of growth at 1 µM: 72 h, read-out: GI.
A short description of data set [4]: Selectivity index, ratio of IC50 for African green monkey Vero cells to IC50 for chloroquine-resistant Plasmodium falciparum W2. The format is toxicity. The settings on record: read-out: Ratio IC50.
Data set [5] concerns Plasmodium falciparum. Briefly: microbe, parasite or virus in culture. The settings on record: W2, 48 h.
A further data set has as its system Vero. Briefly: Cytotoxicity against African green monkey Vero cells assessed as reduction in cell viability after 48 hrs. It is filed as cell-based. The settings on record: Chlorocebus sabaeus.
The test system of another data set is HFF. As to the kind of experiment: Cytotoxicity against HFF cells at 10 uM. It is filed as cell-based. The settings on record: human.
For data set [6], the system named is Toxoplasma gondii. As to the kind of experiment: Antiparasitic activity against Toxoplasma gondii RH infected in HFF treated at 4 hrs post infection measured at 5 days post infection by crystal violet staining based method. It is filed as functional, organism-based.

Results on 21 compounds are retold here after ChEMBL document CHEMBL4138238, “A minimalistic approach to develop new anti-apicomplexa polyamines analogs” (Eur J Med Chem, 2018).

In general, IC50 refers to the concentration needed to halve the response being measured.

Active and inactive are the calls of the source. The calls are words filed in the database; no cut-off is given here.

As to `COc1ccc(CNCCCCCCCCCCCCNCc2ccc(OC)c(O)c2)cc1O`, the 50% inhibitory concentration (IC50) in the data set on Plasmodium falciparum [1] is 1970 nM; in the data set on Plasmodium falciparum [5], 2880 nM; with Vero, over 4.46 µg/mL. For the same compound, the selectivity ratio in data set [2] is over 5.1; in data set [4] it was over 3.5. Moreover, the inhibition of growth at 1 µM in the data set on Toxoplasma gondii [3] stood at 25%.

On to `COc1ccc(CNCCCCCCNCc2ccc(OC)c(O)c2)cc1O`, for which the figures for the concentration for half-maximal inhibition (IC50) with Plasmodium falciparum [1], in the data set with Plasmodium falciparum [5] and with Vero were over 8000 nM, over 8000 nM and over 4.46 µg/mL, respectively. Also, in the data set on Toxoplasma gondii [3], the inhibition of growth at 1 µM was 50%.

In the case of `COc1ccc(CNCCCNCc2ccc(OC)c(O)c2)cc1O`, the IC50 in the data set with Plasmodium falciparum [1] was over 8000 nM; with Plasmodium falciparum [5] it was over 8000 nM; with Vero, over 4.46 µg/mL.

Regarding `COc1ccc(CNCCCCNCc2ccc(OC)c(O)c2)cc1O`, the IC50 with Plasmodium falciparum [1] is over 8000 nM; with Plasmodium falciparum [5], over 8000 nM; in the data set with Vero, over 4.46 µg/mL. Also, the inhibition of growth at 1 µM with Toxoplasma gondii [3] stood at 75%.

Turning to `COc1cc(CNCCCNCc2ccc(OCc3ccccc3)c(OC)c2)ccc1OCc1ccccc1`, the results for the concentration for half-maximal inhibition (IC50) in the data set on Plasmodium falciparum [1], with Plasmodium falciparum [5] and in the data set with Toxoplasma gondii [6] were 420 nM, 470 nM and 1530 nM, respectively. Besides, the inhibition of growth at 1 µM in the data set on Toxoplasma gondii [3] came to 100%. Also, in the data set on HFF, the Activity entry was “Non-Toxic”.

`C[C@@H]1CC[C@H]2[C@@H](C)C(=O)O[C@@H]3O[C@@]4(C)CC[C@@H]1[C@]32OO4` [ARTEMISININ]: the concentration for half-maximal inhibition (IC50) in the data set with Plasmodium falciparum [1] and in the data set on Plasmodium falciparum [5] was 94 nM in each case.

In the case of `COc1ccc(CNCCCCCCCCCCNCc2ccc(OC)c(O)c2)cc1O`, the values for the IC50 with Plasmodium falciparum [1], in the data set with Plasmodium falciparum [5] and in the data set on Vero were 1970 nM, 1880 nM and over 4.46 µg/mL, respectively. Also, the selectivity ratio in data set [2] is over 5.41; in data set [4] it was over 5.7. Besides, in the data set with Toxoplasma gondii [3], the inhibition of growth at 1 µM worked out at 25%.

For `COc1cc(CNCCCCNCc2ccc(OCc3ccccc3)c(OC)c2)ccc1OCc1ccccc1`, the results for the concentration for half-maximal inhibition (IC50) in the data set with Plasmodium falciparum [1], in the data set with Plasmodium falciparum [5] and in the data set with Vero were 330 nM, 490 nM and over 4.46 µg/mL, respectively. The values for the selectivity ratio in data set [2] and in data set [4] were over 27.4 and over 18.4, respectively. Further, the inhibition of growth at 1 µM with Toxoplasma gondii [3] worked out at 50%.

For `COc1cc(CNCCCCCCNCc2ccc(OCc3ccccc3)c(OC)c2)ccc1OCc1ccccc1`, the IC50 with Plasmodium falciparum [1] is 260 nM; in the data set with Plasmodium falciparum [5], 440 nM; in the data set with Vero, over 4.46 µg/mL. Also, the selectivity ratio in data set [2] was over 31.7; in data set [4], over 19. In the data set with Toxoplasma gondii [3], the inhibition of growth at 1 µM came to 25%.

Consider `c1ccc(CNCCCNCc2ccccc2)cc1`, for which the IC50 was 2350 nM in the data set with Plasmodium falciparum [1], 2630 nM with Plasmodium falciparum [5] and over 4.46 µg/mL in the data set on Vero. For the same compound, the selectivity ratio in data set [2] is over 7.9; in data set [4], over 7.1. The inhibition of growth at 1 µM in the data set with Toxoplasma gondii [3] worked out at 25%.

With `COc1cc(CNCCCCCCCCCCNCc2ccc(OCc3ccccc3)c(OC)c2)ccc1OCc1ccccc1`, the IC50 in the data set on Plasmodium falciparum [1] was 1120 nM; with Plasmodium falciparum [5] it was 1050 nM; in the data set with Vero, over 4.46 µg/mL. Moreover, the selectivity ratio in data set [2] was over 6.8; in data set [4] it was over 7.2. Moreover, the inhibition of growth at 1 µM in the data set with Toxoplasma gondii [3] worked out at 25%.

In the case of `COc1ccc(CNCCCCCCCCNCc2ccc(OC)cc2)cc1`, the IC50 in the data set with Plasmodium falciparum [1] is 1480 nM; in the data set on Plasmodium falciparum [5], 1690 nM; with Vero it was over 4.46 µg/mL. Besides, the selectivity ratio was over 8.4 in data set [2] and over 7.3 in data set [4]. The inhibition of growth at 1 µM in the data set with Toxoplasma gondii [3] came out at 25%.

As for `COc1cc(CNCCCCCCCCCCCCNCc2ccc(OCc3ccccc3)c(OC)c2)ccc1OCc1ccccc1`, the concentration for half-maximal inhibition (IC50) was 1280 nM with Plasmodium falciparum [1], 1370 nM with Plasmodium falciparum [5] and over 4.46 µg/mL with Vero. Further, the selectivity ratio in data set [2] was over 5.67; in data set [4] it was over 5.3. Further, the inhibition of growth at 1 µM with Toxoplasma gondii [3] was 25%.

For the compound `COc1ccc(CNCCCNCc2ccc(OC)cc2)cc1`, the figures for the IC50 in the data set on Plasmodium falciparum [1], in the data set with Plasmodium falciparum [5] and with Vero were 3180 nM, 5410 nM and over 4.46 µg/mL, respectively. Also, the selectivity ratio is over 4.8 in data set [2] and over 2.8 in data set [4]. Besides, the inhibition of growth at 1 µM in the data set with Toxoplasma gondii [3] turned out to be 50%.

On to `COc1ccc(CNCCCCCCCCNCc2ccc(OC)c(O)c2)cc1O`, for which the 50% inhibitory concentration (IC50) was 4800 nM in the data set on Plasmodium falciparum [1], 5520 nM in the data set on Plasmodium falciparum [5] and over 4.46 µg/mL with Vero. Also, the selectivity ratio was over 2.38 in data set [2] and over 2.1 in data set [4]. In the data set on Toxoplasma gondii [3], the inhibition of growth at 1 µM is 25%.

Regarding `COc1ccc(CNCCCCCCNCc2ccc(OC)cc2)cc1`, the IC50 came to 3080 nM with Plasmodium falciparum [1] and 3360 nM with Plasmodium falciparum [5]. For the same compound, the selectivity ratio was determined as 2.4 in data set [2] and 2.5 in data set [4]. Further, in the data set on Toxoplasma gondii [3], the inhibition of growth at 1 µM was 25%.

As to `COc1ccc(CNCCCCCCCCCCNCc2ccc(OC)cc2)cc1`, the concentration for half-maximal inhibition (IC50) with Plasmodium falciparum [1] was 600 nM; in the data set with Plasmodium falciparum [5] it was 670 nM; in the data set on Vero, over 4.46 µg/mL. Moreover, the selectivity ratio is over 19 in data set [2] and over 17 in data set [4]. Besides, in the data set with Toxoplasma gondii [3], the inhibition of growth at 1 µM turned out to be 50%.

With `COc1ccc(CNCCCCCCCCCCCCNCc2ccc(OC)cc2)cc1`, the half-maximal inhibitory concentration (IC50) in the data set on Plasmodium falciparum [1] is 1580 nM; with Plasmodium falciparum [5] it was 1860 nM; with Vero, over 4.46 µg/mL. The selectivity ratio in data set [2] is over 6.8; in data set [4], over 5.8. The inhibition of growth at 1 µM in the data set with Toxoplasma gondii [3] is 75%.

On to `COc1cc(CNCCCCCCCCNCc2ccc(OCc3ccccc3)c(OC)c2)ccc1OCc1ccccc1`, for which the IC50 in the data set on Plasmodium falciparum [1] came out at 310 nM; in the data set with Plasmodium falciparum [5], 430 nM; in the data set on Vero, 4520 nM. The selectivity ratio in data set [2] was determined as 14.6; in data set [4], 10.5. Also, the “growth inhibition (GI)” value in the data set on Toxoplasma gondii [3] was “inactive”.

Regarding `COc1ccc(CNCCCCNCc2ccc(OC)cc2)cc1`, the figures for the 50% inhibitory concentration (IC50) in the data set with Plasmodium falciparum [1], in the data set on Plasmodium falciparum [5] and in the data set with Vero were 4570 nM, 6690 nM and over 4.46 µg/mL, respectively. Also, the results for the selectivity ratio in data set [2] and in data set [4] were over 3.2 and over 2.2, respectively. Moreover, the inhibition of growth at 1 µM with Toxoplasma gondii [3] worked out at 25%.

As to `CCc1nc(N)nc(N)c1-c1ccc(Cl)cc1`, the “growth inhibition (GI)” value in the data set on Toxoplasma gondii [3] was “inactive”.
